Source: patent US9290476B2, “Methylene linked quinolinyl modulators of RORγt” (Janssen Pharmaceutica NV, priority 2012, dated 2016)
Several values for one entry are separate records, joined by “and”; a condition that tells them apart may be missing. Identical values can stand only once. Like-named read-outs stand apart in the source and are kept apart here.

Legend:
[1] = tested on: IL-17 production by CD4 T cells; test: Human Th17 assay (IL-17 production by CD4 T cells under Th17 differentiation); format: cell-based; settings: human CD4+ T cells, IL-17 after 3 days, read-out: Human Th17 Assay, IC50 μM
Summary of the method: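 Healthy-donor peripheral CD4+ T cells (1.5×10^5/well) preincubated 1 h with titrated compound (0.2% DMSO), then differentiated with anti-CD3/CD28 beads, anti-IL4, anti-IFNγ, IL1β, IL23, IL6, TGFβ and IL2 for 3 days at 37 °C. Supernatant IL-17 quantified by MSD electrochemiluminescence against a standard curve; IC50 fitted.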

[2] = target: human RORγt ligand binding domain (RORγt LBD) (Homo sapiens (Human), UniProt P51449); test: RORγt ThermoFluor assay (thermal shift binding affinity); settings: estimated from thermal shift
human RORγt ligand binding domain (RORγt LBD), sequence (P51449 other isoform, or with tags, fused parts or gaps): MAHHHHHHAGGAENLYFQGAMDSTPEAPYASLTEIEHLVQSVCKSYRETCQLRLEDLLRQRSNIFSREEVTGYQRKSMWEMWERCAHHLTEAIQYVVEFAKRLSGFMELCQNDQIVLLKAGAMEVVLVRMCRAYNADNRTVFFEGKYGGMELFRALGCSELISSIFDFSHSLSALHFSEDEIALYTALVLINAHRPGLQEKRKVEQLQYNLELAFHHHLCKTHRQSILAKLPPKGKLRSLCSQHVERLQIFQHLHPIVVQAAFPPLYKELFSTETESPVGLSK
Summary of the method: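 Thermal shift used 0.065 mg/mL RORγt LBD with 60 μM 1,8-ANS in 100 mM Hepes pH 7.0, 10 mM NaCl, 2.5 mM GSH and 0.002% Tween-20, heated at 1 °C/min. Fluorescence was excited at 380–400 nm and emission read at 500 nm.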

human RORγt LBD = human RORγt LBD (Homo sapiens (Human), UniProt P51449); test: RORγt reporter assay (GAL4-RORγt LBD luciferase in HEK293T cells); format: cell-based; settings: for IC50 / RORγt reporter Assay, % inhibition @ 6 μM: HEK293T cells; for IC50: 24 hours compound treatment; for inhibition at 6 µM: HEK-293T, read-out: RORγt reporter Assay, % inhibition @ 6 μM, HEK293T cells, 6 μM
human RORγt LBD, sequence (P51449 258-518): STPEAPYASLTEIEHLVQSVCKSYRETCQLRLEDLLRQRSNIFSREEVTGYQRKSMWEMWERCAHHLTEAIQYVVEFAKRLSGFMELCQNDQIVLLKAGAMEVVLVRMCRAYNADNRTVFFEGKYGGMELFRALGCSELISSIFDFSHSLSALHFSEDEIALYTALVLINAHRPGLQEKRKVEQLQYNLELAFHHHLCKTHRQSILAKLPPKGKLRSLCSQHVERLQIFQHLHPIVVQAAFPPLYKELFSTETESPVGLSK
Summary of the method: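 HEK293T cells transiently co-transfected with GAL4-DBD–wild-type human RORγt LBD (pBIND) and GAL4-responsive firefly luciferase reporter (pGL4.31); renilla luciferase from pBIND normalises transfection/viability. Cells in phenol-red-free DMEM, 5% lipid-reduced FCS, treated with compound 24 h. Firefly/renilla ratio plotted against compound concentration.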

How did the IC50 [1] turn out when `Cc1cc(C(O)(c2ccc(C#N)cc2)c2cncn2C)cc2c(C#N)c(Cc3ccc(-n4cccn4)cc3)c(C#N)nc12` (single isomer, unassigned) [Example 66B, 3-(4-(1H-pyrazol-1-yl)benzyl)-6-((4-cyanophenyl)(hydroxy)(1-methyl-1H-imidazol-5-yl)methyl)-8-methylquinoline-2,4-dicarbonitrile] was run?
Its IC50 is 1.1 µM.

And the Kd [2]?
The Kd was 270 nM.

And the IC50 (human RORγt LBD)?
Its IC50 is 0.42 µM.

And the inhibition at 6 µM (human RORγt LBD)?
The inhibition at 6 µM was 95%.

Which results are given for `Cc1cc(C(O)(c2ccc(C#N)cc2)c2cncn2C)cc2c(C#N)c(Cc3ccc(-n4cccn4)cc3)c(C#N)nc12` (single isomer, unassigned) [Example 66C, 3-(4-(1H-pyrazol-1-yl)benzyl)-6-((4-cyanophenyl)(hydroxy)(1-methyl-1H-imidazol-5-yl)methyl)-8-methylquinoline-2,4-dicarbonitrile]?
IC50 [1]: 0.04 µM; Kd [2]: 7.9 nM; RORγt reporter Assay, % inhibition @ 6 μM (human RORγt LBD): 101%; IC50 (human RORγt LBD): 0.029 µM

Which results are given for `CON(C)c1nc2ccc(C(O)(c3ccc(C(F)(F)F)nc3)c3cncn3C)cc2c(Cl)c1Cc1ccc(-n2cccn2)cc1` (single isomer, unassigned) [Example 67B, (3-(4-(1H-pyrazol-1-yl)benzyl)-4-chloro-2-(methoxy(methyl)amino)quinolin-6-yl)(1-methyl-1H-imidazol-5-yl)(6-(trifluoromethyl)pyridin-3-yl)methanol]?
IC50 [1]: 0.01 µM; Kd [2]: 6.3 nM; IC50 (human RORγt LBD): 0.035 µM; inhibition at 6 µM (human RORγt LBD): 101%

Which IC50 [1] does the source give for `CON(C)c1nc2ccc(C(O)(c3ccc(C(F)(F)F)nc3)c3cncn3C)cc2c(Cl)c1Cc1ccc(-n2cccn2)cc1` (single isomer, unassigned) [Example 67C, (3-(4-(1H-pyrazol-1-yl)benzyl)-4-chloro-2-(methoxy(methyl)amino)quinolin-6-yl)(1-methyl-1H-imidazol-5-yl)(6-(trifluoromethyl)pyridin-3-yl)methanol] here?
Its IC50 is 0.1 µM.

And the Kd [2]?
The Kd was 57 nM.

And the “RORγt reporter Assay, % inhibition @ 6 μM” value (human RORγt LBD)?
The value was 101%.

What about the IC50 (human RORγt LBD) of the same compound?
Its IC50 is 0.12 µM.

Which IC50 [1] does the source give for `Cn1cncc1C(O)(c1ccc(C(F)(F)F)nc1)c1ccc2nc(N3CCC3)c(Cc3ccc(-n4cccn4)cc3)c(Cl)c2c1` (single isomer, unassigned) [Example 68B, (3-(4-(1H-pyrazol-1-yl)benzyl)-2-(azetidin-1-yl)-4-chloroquinolin-6-yl)(1-methyl-1H-imidazol-5-yl)(6-(trifluoromethyl)pyridin-3-yl)methanol] here?
The IC50 was 0.01 µM.

What about the Kd [2] of the same compound?
The Kd was 2.1 nM.

And the IC50 (human RORγt LBD)?
The IC50 was roughly 0.05 µM.

What about the inhibition at 6 µM (human RORγt LBD) of the same compound?
The inhibition at 6 µM was 96%.

For `Cn1cncc1C(O)(c1ccc(C(F)(F)F)nc1)c1ccc2nc(N3CCC3)c(Cc3ccc(-n4cccn4)cc3)c(Cl)c2c1` (single isomer, unassigned) [Example 68C, (3-(4-(1H-pyrazol-1-yl)benzyl)-2-(azetidin-1-yl)-4-chloroquinolin-6-yl)(1-methyl-1H-imidazol-5-yl)(6-(trifluoromethyl)pyridin-3-yl)methanol], which IC50 [1] is on record?
The IC50 was 0.2 µM.

And the Kd [2]?
Its Kd is 30 nM.

And the “RORγt reporter Assay, % inhibition @ 6 μM” value (human RORγt LBD)?
The value was 100%.

What about the IC50 (human RORγt LBD) of the same compound?
Its IC50 is 0.21 µM.

With `Cn1cncc1C(O)(c1ccc(Cl)cc1)c1ccc2nc(C#N)c(Cc3ccc(-n4cccn4)cc3)c(C#N)c2c1` (single isomer, unassigned) [Example 71B, 3-(4-(1H-Pyrazol-1-yl)benzyl)-6-((4-chlorophenyl)(hydroxy)(1-methyl-1H-imidazol-5-yl)methyl)quinoline-2,4-dicarbonitrile] as the compound, how does the IC50 [1] read?
The IC50 was 0.011 µM.

And the Kd [2]?
The Kd was 1.6 nM.

What about the IC50 (human RORγt LBD) of the same compound?
Its IC50 is 0.011 µM.

What about the inhibition at 6 µM (human RORγt LBD) of the same compound?
The inhibition at 6 µM was 105%.

Which results are given for `Cn1cncc1C(O)(c1ccc(Cl)cc1)c1ccc2nc(C#N)c(Cc3ccc(-n4cccn4)cc3)c(C#N)c2c1` (single isomer, unassigned) [Example 71C, 3-(4-(1H-Pyrazol-1-yl)benzyl)-6-((4-chlorophenyl)(hydroxy)(1-methyl-1H-imidazol-5-yl)methyl)quinoline-2,4-dicarbonitrile]?
IC50 [1]: 0.3 µM; Kd [2]: 130 nM; RORγt reporter Assay, % inhibition @ 6 μM (human RORγt LBD): 103%; IC50 (human RORγt LBD): 0.26 µM

How did the IC50 [1] turn out when `COc1nc2ccc(C(O)(c3ccc(C(F)(F)F)nc3)c3cncn3C)cc2c(C#N)c1Cc1ccc(-n2cccn2)cc1` (single isomer, unassigned) [Example 73B, 3-(4-(1H-Pyrazol-1-yl)benzyl)-6-(hydroxy(1-methyl-1H-imidazol-5-yl)(6-(trifluoromethyl)pyridin-3-yl)methyl)-2-methoxyquinoline-4-carbonitrile] was run?
The IC50 was 0.02 µM.

What about the Kd [2] of the same compound?
The Kd was 4.5 nM.

And the IC50 (human RORγt LBD)?
The IC50 was 0.046 µM.

What about the inhibition at 6 µM (human RORγt LBD) of the same compound?
Its inhibition at 6 µM is 97%.

How did the IC50 [1] turn out when `COc1nc2ccc(C(O)(c3ccc(C(F)(F)F)nc3)c3cncn3C)cc2c(C#N)c1Cc1ccc(-n2cccn2)cc1` (single isomer, unassigned) [Example 73C, 3-(4-(1H-Pyrazol-1-yl)benzyl)-6-(hydroxy(1-methyl-1H-imidazol-5-yl)(6-(trifluoromethyl)pyridin-3-yl)methyl)-2-methoxyquinoline-4-carbonitrile] was run?
The IC50 was 0.13 µM.

What about the Kd [2] of the same compound?
Its Kd is 34 nM.

What about the “RORγt reporter Assay, % inhibition @ 6 μM” value (human RORγt LBD) of the same compound?
The value was 99%.

And the IC50 (human RORγt LBD)?
Its IC50 is 0.31 µM.

Which results are given for `CCN(CC)c1nc2ccc(C(O)(c3ccc(C(F)(F)F)nc3)c3cncn3C)cc2c(C#N)c1Cc1ccc(-n2cccn2)cc1` (single isomer, unassigned) [Example 74B, 3-(4-(1H-Pyrazol-1-yl)benzyl)-2-(diethylamino)-6-(hydroxy(1-methyl-1H-imidazol-5-yl)(6-(trifluoromethyl)pyridin-3-yl)methyl)quinoline-4-carbonitrile]?
IC50 ([1]; Homo sapiens, CD4+ T, 72 h): 0.091 µM; Kd [2]: 1300 nM; IC50 (human RORγt LBD): 0.17 µM; inhibition at 6 µM (human RORγt LBD): 95%

Which results are given for `CCN(CC)c1nc2ccc(C(O)(c3ccc(Cl)cc3)c3cncn3C)cc2c(Cl)c1Cc1ccc(-n2cccn2)cc1` (single isomer, unassigned) [Example 75C, (3-(4-(1H-Pyrazol-1-yl)benzyl)-4-chloro-2-(diethylamino)quinolin-6-yl)(4-chlorophenyl)(1-methyl-1H-imidazol-5-yl)methanol]?
IC50 ([1]; Homo sapiens, CD4+ T, 72 h): 0.14 µM; Kd [2]: 150 nM; RORγt reporter Assay, % inhibition @ 6 μM (human RORγt LBD): 90%; IC50 (human RORγt LBD): 0.18 µM

`COc1nc2ccc(C(O)(c3ccc(C#N)cc3)c3cncn3C)cc2c(C#N)c1Cc1ccc(-n2cccn2)cc1` (single isomer, unassigned) [Example 76C, 3-(4-(1H-Pyrazol-1-yl)benzyl)-6-((4-cyanophenyl)(hydroxy)(1-methyl-1H-imidazol-5-yl)methyl)-2-methoxyquinoline-4-carbonitrile] was tested. Which IC50 ([1]; Homo sapiens, CD4+ T, 72 h) did it give?
Its IC50 is 0.033 µM.

What about the Kd [2] of the same compound?
Its Kd is 15 nM.

What about the “RORγt reporter Assay, % inhibition @ 6 μM” value (human RORγt LBD) of the same compound?
Its value is 101%.

What about the IC50 (human RORγt LBD) of the same compound?
Its IC50 is 0.045 µM.

How did the IC50 ([1]; Homo sapiens, CD4+ T, 72 h) turn out when `COc1nc2ccc(C(O)(c3sc(C)nc3C)c3cnnn3C)cc2c(Cl)c1Cc1ccc(C(F)(F)F)cc1` (single isomer, unassigned) [Example 79B, (4-Chloro-2-methoxy-3-(4-(trifluoromethyl)benzyl)quinolin-6-yl)(2,4-dimethylthiazol-5-yl)(1-methyl-1H-1,2,3-triazol-5-yl)methanol] was run?
The IC50 was 0.052 µM.

What about the Kd [2] of the same compound?
Its Kd is 57 nM.

And the IC50 (human RORγt LBD)?
The IC50 was 0.038 µM.

And the inhibition at 6 µM (human RORγt LBD)?
The inhibition at 6 µM was 99%.

Which results are given for `COc1nc2ccc(C(O)(c3cnnn3C)c3cnc(C)n3C)cc2c(C#N)c1Cc1ccc(C(F)(F)F)cc1` (single isomer, unassigned) [Example 81B, 6-((1,2-Dimethyl-1H-imidazol-5-yl)(hydroxy)(1-methyl-1H-1,2,3-triazol-5-yl)methyl)-2-methoxy-3-(4-(trifluoromethyl)benzyl)quinoline-4-carbonitrile]?
IC50 ([1]; Homo sapiens, CD4+ T, 72 h): 0.0022 µM; Kd [2]: 0.05 nM; IC50 (human RORγt LBD): 0.002 µM and ~0.0002 µM; inhibition at 6 µM (human RORγt LBD): 104%

For `COc1nc2ccc(C(O)(c3cnnn3C)c3cnc(C)n3C)cc2c(C#N)c1Cc1ccc(C(F)(F)F)cc1` (single isomer, unassigned) [Example 81C, 6-((1,2-Dimethyl-1H-imidazol-5-yl)(hydroxy)(1-methyl-1H-1,2,3-triazol-5-yl)methyl)-2-methoxy-3-(4-(trifluoromethyl)benzyl)quinoline-4-carbonitrile], which IC50 [1] is on record?
The IC50 was 0.002 µM.

And the Kd [2]?
The Kd was 0.12 nM.

And the “RORγt reporter Assay, % inhibition @ 6 μM” value (human RORγt LBD)?
Its value is 103%.

What does the source list for `COc1nc2ccc(C(O)(c3ccccc3)C3CCN(C(C)=O)CC3)cc2c(Cl)c1Cc1ccc(-n2cccn2)cc1` (single isomer, unassigned) [Example 83B, 1-(4-((3-(4-(1H-Pyrazol-1-yl)benzyl)-4-chloro-2-methoxyquinolin-6-yl)(hydroxy)(phenyl)methyl)piperidin-1-yl)ethanone]?
IC50 [1]: 0.016 µM; Kd [2]: 4.7 nM; IC50 (human RORγt LBD): 0.024 µM and ~0.07 µM; inhibition at 6 µM (human RORγt LBD): 100%

For `COc1nc2ccc(C(O)(c3ccccc3)C3CCN(C(C)=O)CC3)cc2c(Cl)c1Cc1ccc(-n2cccn2)cc1` (single isomer, unassigned) [Example 83C, 1-(4-((3-(4-(1H-Pyrazol-1-yl)benzyl)-4-chloro-2-methoxyquinolin-6-yl)(hydroxy)(phenyl)methyl)piperidin-1-yl)ethanone], which IC50 [1] is on record?
The IC50 was 0.12 µM.

What about the Kd [2] of the same compound?
Its Kd is 77 nM.

And the “RORγt reporter Assay, % inhibition @ 6 μM” value (human RORγt LBD)?
Its value is 103%.

What about the IC50 (human RORγt LBD) of the same compound?
Its IC50 is 0.14 µM.
